Measured values taken from the supplement of paper PMC10949913.

What was measured:
[1] = test system: CU-ACC1; assay: area under concentration-response curve (viability) (AUC (a.u.)); higher = less active; conditions: 48 h
Method in brief: (§1)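 Concentration-response curves were fitted to obtain AC50 and area under the curve, keeping inhibitory or non-responding curve classes only. Data came from CellTiter-Glo luminescence, normalised per plate to vehicle and empty-well controls, in three adrenocortical carcinoma cell lines. These were treated in 1,536-well plates with library compounds at 11 concentrations and read after 48 h.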

[2] = test system: CU-ACC2; assay: as above; conditions: 48 h
Method in brief: as §1

Row | SMILES | area under concentration-response curve [1] | area under concentration-response curve [2]
1 | C[C@H](NC(=O)C1=C2N=CC=C[N]2N=C1N)\C3=C\C4=CC=CC(=C4C(=O)N3C5=CC=CC=C5)C#CC6=C[N](C)N=C6 | 511 | 608
2 | COc1cc([C@@H]2c3cc4c(cc3[C@@H](O[C@@H]3O[C@@H]5CO[C@@H](C)O[C@H]5[C@H](O)[C@H]3O)[C@H]3COC(=O)[C@H]23)OCO4)cc(OC)c1O | 492 | 592
3 | CCCCCCCCCCCCCC(=O)N[C@H](CO)[C@H](O)c1ccc([N+](=O)[O-])cc1 | 502 | 598
4 | Nc1nc(-c2nn(Cc3ccccc3F)c3ncccc23)nc(N)c1N1CCOCC1 | 605 | 599
5 | CCOC(=N)c1nc2ccc3ncnc(Nc4cc(F)c(F)cc4Cl)c3c2s1 | 424 | 653
6 | Cc1c(C(=O)Nc2cccc(C(F)(F)F)c2)cc(-c2ccccc2)n1CCCN1CCOCC1 | 573 | 610
7 | CN(C)CCN(C)CCc1ccc(Cl)c(Cl)c1 | 574 | 581
8 | C[C@]12CC[C@@H]3c4ccc(O)cc4CC[C@H]3[C@@H]1C[C@@H](O)[C@@H]2O | 388 | 398
9 | CNNCc1ccc(C(=O)NC(C)C)cc1 | 517 | 526
10 | NC(=O)c1ccc(I)c([N+](=O)[O-])c1 | 549 | 583
11 | Nc1c2c(nc3ccccc13)CCCC2 | 583 | 653
12 | COc1ccc2c(c1)c(CC(=O)O)c(C)n2C(=O)c1ccc(Cl)cc1 | 495 | 566
13 | COc1c(C)cc(NC(=O)c2nn(Cc3ccc(F)cc3)c3c2CN(C(=O)c2ccc[nH]2)C[C@]3(C)C(N)=O)cc1C | 567 | 646
14 | C[C@H]1[C@H](O)[C@@H](C)/C=C/C=C/CC/C=C/C=C/C=C/C=C/[C@H](O[C@@H]2O[C@H](C)[C@@H](O)[C@H](N)[C@@H]2O)C[C@@H]2O[C@](O)(C[C@@H](O)[C@H](O)CC[C@@H](O)C[C@@H](O)C[C@@H](O)CC(=O)O[C@H]1C)C[C@H](O)[C@H]2C(=O)O | 375 | 426
15 | CCc1cc(/C(C)=N/OCc2ccc(C3CCCCC3)c(C(F)(F)F)c2)ccc1CN1CC(C(=O)O)C1 | 462 | 526
16 | CC1=C(C=CC=C1)N2\C(=N/C3=C(C(=CC=C3)C)C2=O)C[N]4N=CC5=C4N=CN=C5N | 583 | 614
17 | Cn1ccc2cc3c(cc21)CCN3C(=O)Nc1cccnc1 | 455 | 490
18 | CC(=O)OCC(=O)[C@@]1(O)CC[C@H]2[C@@H]3CCC/4=C/C(=O)CC[C@]4(C)[C@H]3C(=O)C[C@]12C | 531 | 617
19 | O=C(Nc1cccnc1)c1cc(-c2ccnc(F)c2)ccc1OCc1ccccc1 | 514 | 615
20 | Cc1cccc(N(C)C(=S)Oc2ccc3ccccc3c2)c1 | 428 | 497
21 | CC1(CN2CCC(n3c(=O)[nH]c4ccccc43)CC2)OCc2ccccc2-n2cccc21 (stereo unspecified) | 494 | 556
22 | C=CC(=O)N[C@H]1CN(c2nc(Nc3cn(C)nc3OC)c3ncn(C)c3n2)C[C@@H]1F | 401 | 422
23 | CN1C(=O)[C@@H](NC(=O)c2cc(Cc3ccccc3)on2)COc2ccccc21 | 361 | 325
